For 36 compounds, melting point results are on record in a melting point compilation (Tetko et al.; mined from patent text by program, amines drawn as free bases though some values may be those of a salt).

For orientation: melting point means the temperature, or range, at which the solid turns liquid.

The compound `NC(=O)c1nnn(Cc2ccc(S(=O)c3ccc(Cl)cc3)c(Cl)c2)c1N` (stereo unspecified) returned a melting point of 237 to 238 °C. Then `CN(C)C1=CC(=NS(=O)(=O)c2cccs2)c2ccccc2C1=O`, with 183 to 185 °C; and `Fc1cc(CC2(Cc3ccnc(F)c3)c3ccccc3Oc3ncccc32)ccn1`, with 185 to 189 °C. Then `CC1OOC2CC1CC(=O)C2C` (stereo unspecified), with 160 °C; and `CC(=O)N(Cc1nc(-c2ccccc2)c(-c2ccccc2)o1)c1cccc(OCC(=O)O)c1`, with 75 to 80 °C; and `Cc1onc(NS(=O)(=O)c2cc(-c3ncccn3)ccc2-c2ccccc2CN(C)C(=O)CC(C)(C)C)c1C`, with 120 to 128 °C. Then `Cc1nc(C)c2cc(-c3c(Cl)cccc3Cl)c(N)nc2n1`, with 239 to 240 °C. For `C[C@H]1CCCC(C)(C)[C@@H]1C(=O)O`, the melting point fell in the range of 44 to 54 °C.

In turn, `C[Si](C)(C)C#C[C@@]1(O)[C@@H](COC(=O)c2ccc(Cl)cc2)OC(O)[C@@H]1O` (stereo partly specified) came in with a melting point of 130 to 132 °C. Then `CCN(C(=O)N(C)C)c1nnc(S(=O)(=O)N(C)C)s1`, with 75 to 77 °C; and `COc1ccc(N2CCCC2=O)cc1OC1CCCC1`, with 130 to 131 °C; and `O=C(O)CN(CCc1ccccc1)C(=O)[C@@H]1C[C@@H](S)CN1S(=O)(=O)c1ccc2ccccc2c1`, with 198 to 200 °C. With `N#Cc1cccc(C2=Nc3ccc(C=Cc4ccccc4)cc3NC(=O)C2)c1`, the melting point lay within 185 to 188 °C.

`NC(=O)CNC(=O)CN1CCCC1=O` returned a melting point of 147 to 148 °C. Then `CCCCCc1ccc(OCC(O)CC#CCCCC(=O)O)cc1` (stereo unspecified), with 54 to 57 °C. Then `COc1cccc(CCC(c2ccccc2)C(O)c2ccc(O)cc2)c1` (stereo unspecified), with 100 to 103 °C; and `N#CC(C(=O)c1ccc(Cl)cc1)=C1CCCN1Cc1ccc(Cl)nc1`, with 142 to 144 °C. `CSC(SC)=C(Cl)c1cccc(C(=O)c2ccccc2)c1` yielded a melting point of 94 to 96 °C.

Consider `Cc1cccc(-c2nc(CI)c(C)o2)c1`, for which the melting point was 32 °C. Then `Cc1c(CC(N)=O)c2cc(OCc3nc4ccccc4s3)ccc2n1Cc1ccc(Cl)cc1`, with 169 to 170 °C; and `CC(=O)NS(=O)(=O)c1cc(C(=O)CCl)ccc1Cl`, with 177 °C; and `CNC(=O)Nc1ccc(OCCCN2CCC(C(O)(c3ccc(F)cc3)c3ccc(F)cc3)CC2)cc1`, with 177 to 178 °C. Then `O=C(COC1CCCCO1)c1ccc(Cl)cc1` (stereo unspecified), with 57 °C; and `CCOC(=O)C=C(C)C=CC=C(C)C=Cc1c(C)c(C)c(OC)c(C)c1Cl`, with 90 °C; and `Cc1cc(C)cc(C(=O)N2CCC(N3CCC(NC(=O)c4ccccc4N)CC3)CC2Cc2ccccc2)c1` (stereo unspecified), with 121 °C. Then `COc1cccc2c(=O)sc(C(=O)O)cc12`, with 283 to 284 °C; and `OCC1OC(n2cnc3c(Nn4cccc4)ncnc32)C(O)C1O` (stereo unspecified), with 193 to 195 °C; and `CNc1nc(C)c(C(=O)c2ccc(Cl)c([N+](=O)[O-])c2)s1`, with 220 to 232 °C.

Regarding `CC(C)(C)OC(=O)Nc1ccc(-c2ccco2)cc1[N+](=O)[O-]`, the melting point lay within 169 to 172 °C. Then `C=CCNC(=O)N1CC(Oc2ccc(C(F)(F)F)cc2)C1`, with 91 to 92.5 °C; and `NC(=O)Cc1c(C(=O)c2ccccc2)[nH]c2cc(Cl)ccc12`, with 234 to 237 °C. Then `CC(=O)Nc1ccc(SC(F)(F)C(F)F)cc1`, with 134 to 135 °C; and `CNCc1ccc2cc(O)ccc2c1`, with 168 to 169 °C; and `c1ccc(OCCSCc2nnc(-c3ccc4[nH]ccc4c3)o2)cc1`, with 130 to 132 °C. Then `COc1c(C(C)=O)cnc2c([N+](=O)[O-])cccc12`, with 100 to 105 °C. Turning to `COc1ccc(-c2ocnc2-c2cc(OC)c(O)c(OC)c2)cc1O`, the melting point lay in the range of 144 to 146 °C.
